Results reported in PubChem BioAssay AID1648 (Sanford-Burnham Center for Chemical Genomics, 2009).
Active and inactive are the calls of the source. No rule for the calls is given here.

Target: Serine/threonine-protein kinase mTOR (Homo sapiens) (UniProt P42345)
Test: binders of mTOR FRB domain, biophysical, NMR (AID 1648)
Conditions: NMR binding to FRB domain, chemical shift

Serine/threonine-protein kinase mTOR (Homo sapiens), sequence (P42345 2015-2114): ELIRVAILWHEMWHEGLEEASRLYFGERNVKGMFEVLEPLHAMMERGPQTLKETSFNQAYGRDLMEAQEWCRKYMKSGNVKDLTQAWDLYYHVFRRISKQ

Structure (SMILES) | Kd
CO[C@H]1[C@@H](O)[C@@H](C)O[C@H](O[C@H]2CCC3(C)C4CCC5(C)[C@@H](C6=CC(=O)OC6)CC[C@]5(O)[C@@H]4CC[C@]3(O)C2)[C@@H]1O (some centres not stated) | > 4 mM (inactive)
S=c1[nH]ncn1-c1ccccc1 | > 4 mM (inactive)
O=C(O)CCCc1nc2ccccc2s1 | > 4 mM (inactive)
Cn1nccc1N | > 4 mM (inactive)
O=C(O)C1CN(Cc2ccccc2)CCO1 (configuration not stated) | > 4 mM (inactive)
Nc1cc2ccccc2cn1 | > 4 mM (inactive)
Cc1sc2nc(-c3ccco3)oc(=O)c2c1C | > 4 mM (inactive)
O=C(NCC1CCNCC1)c1ccccn1 | > 4 mM (inactive)
CCSc1n[nH]c(=O)[nH]c1=O | > 4 mM (inactive)
OC(CCl)c1ccc(-n2cncn2)cc1 (configuration not stated) | > 4 mM (inactive)
c1ccc(-c2noc(-c3ccco3)n2)nc1 | > 4 mM (inactive)
Cn1cnnc1SCC(=O)Nc1ccccc1 | > 4 mM (inactive)
O=c1[nH]c2ccc(S(=O)(=O)NC3CC3)cc2[nH]1 | > 4 mM (inactive)
COC(=O)C1CCc2ccccc2N1 (configuration not stated) | > 4 mM (inactive)
CC(=O)Nc1ccc(NC(=O)C2CC2)cc1 | > 4 mM (inactive)
Cc1ccc(-n2nnnc2SCC(N)=O)c(C)c1 | > 4 mM (inactive)

Structure (SMILES) | Kd
Cc1ccc(NC(=O)N2CCC(C(N)=O)CC2)cc1 | > 4 mM (inactive)
O=C1CSC(=Nc2ccc(O)cc2)N1 | > 4 mM (inactive)
COc1ccc(-c2cc(=O)c3c(OC(C)=O)cc(OC(C)=O)cc3o2)cc1 | > 4 mM (inactive)
CCNC(CC(=O)Nc1ccc(F)cc1)C(=O)O (configuration not stated) | > 4 mM (inactive)
O=C1C2=C(SCCS2)C(=O)N1CCCO | > 4 mM (inactive)
Nc1nc(SCc2ccc3c(c2)OCCO3)n[nH]1 | > 4 mM (inactive)
COc1ccc2ccc(=O)oc2c1 | > 4 mM (inactive)
O=C(NC1=NCCS1)c1cccc(F)c1 | > 4 mM (inactive)
O=C(O)Cn1c(=O)sc2ccccc21 | > 4 mM (inactive)
OCC12COC3c4ccccc4C(OC1)N32 (configuration not stated) | > 4 mM (inactive)
CN(C)C(=O)c1ccccc1-c1ccccc1 | > 4 mM (inactive)
C=C(C)[C@H]1CC=C(C(=O)O)CC1 | > 4 mM (inactive)
O=C(O)c1cnn2ccccc12 | > 4 mM (inactive)
CC(C)=CCc1c(O)cc2occ(-c3ccc4c(c3)OCO4)c(=O)c2c1O | > 4 mM (inactive)
O=C1CS/C(=N/N=C/c2cccs2)N1 | > 4 mM (inactive)
NC(=O)CCn1cnc2ccccc21 | > 4 mM (inactive)
